Test results reported in US5763587A, “Process for the synthesis of amikacin” (Gist Brocades Italy Spa, priority 1987, dated 1998).

Assays:
mice = assay: Comparison of death rate, toxicity and acute general tolerability in mice by intravenous administration; assay type: in vivo
Excerpt: (§1) Some experiments have been thus carried out for the comparison of the death rate, toxicity and acute general tolerability, between the product available in the market from Bristol Myers (BB-K8), amikacin produced according to the synthesis of the present invention and the potential impurities (BB K11, BB K29 and the diacylate with L-HABA at N-1 and N-3"), in mice by intravenous administration (caudal vein) to groups of 10 animals. The LD50 values have been calculated by the Finney-Probits method.

[1] = as above; assay type: in vivo; conditions: mouse, in vivo, iv, mice, intravenous (caudal vein), groups of 10 animals, Finney-Probits method
Excerpt: as §1

SMILES | LD50 (mice; mice, intravenous (caudal vein), groups of 10 animals, Finney-Probits method) [mg/kg] | LD50 [1] [mg/kg] | toxicity compared with BB-K29 (in words) (mice) | toxicity compared with amikacin (in words) (mice)
NCC[C@H](O)C(=O)N[C@@H]1C[C@H](N)[C@@H](O[C@H]2O[C@H](CN)[C@@H](O)[C@H](O)[C@H]2O)[C@H](O)[C@H]1O[C@H]1O[C@H](CO)[C@@H](O)[C@H](N)[C@H]1O [Amikacin, 0-3-amino-3-desoxy-alpha-D-glucopyranosyl-(1→6)-0-[6--amino-6-desoxy-alpha-D-glucopyranosyl-(1→)]-N^1-(4-amino-2-hydroxy-1-oxybutyl)-2-desoxy-D-streptamine] | 241 |  |  | 
NCC[C@H](O)C(=O)N[C@@H]1C[C@H](N)[C@@H](O[C@H]2O[C@H](CN)[C@@H](O)[C@H](O)[C@H]2O)[C@H](O)[C@H]1O[C@H]1O[C@H](CO)[C@@H](O)[C@H](N)[C@H]1O [BB-K8 Bristol] |  | 202 |  | 
NCC[C@H](O)C(=O)N[C@@H]1[C@@H](O)[C@@H](O[C@@H]2[C@@H](O)[C@H](O[C@H]3O[C@H](CN)[C@@H](O)[C@H](O)[C@H]3O)[C@@H](N)C[C@H]2N)O[C@H](CO)[C@H]1O [BB-K11] |  | 356 | lower | 
NCC[C@H](O)C(=O)N[C@H]1C[C@@H](N)[C@H](O[C@H]2O[C@H](CO)[C@@H](O)[C@H](N)[C@H]2O)[C@@H](O)[C@@H]1O[C@H]1O[C@H](CN)[C@@H](O)[C@H](O)[C@H]1O [BB-K29] |  | 126 |  | more toxic than amikacin
NCC[C@H](O)C(=O)N[C@@H]1[C@@H](O)[C@@H](O[C@@H]2[C@@H](O)[C@H](O[C@H]3O[C@H](CN)[C@@H](O)[C@H](O)[C@H]3O)[C@@H](N)C[C@H]2NC(=O)[C@@H](O)CCN)O[C@H](CO)[C@H]1O [Diacylate (N-1 and N-3")] |  | 268 | lower | 
